Experimental data published in patent US7811688B2 (Enersol, Inc. N.A., LP, priority 2002, dated 2010).
Where a name gives a salt, the structure may show the parent alone. Read-outs that look alike come from different tables or passages of the source.

How the values were obtained:
[1] = tested on: human nose; conditions: cited from earlier work; for Olfactory Power (pOl): in air, pOl=−log [odorant] as volumetric fraction; for Olfactory Power (p. ol): Table 4
[2] = Odorant vapor pressure and odorant-hydrogen phase equilibrium (Raoult's Law)
Method: To quantitatively validate the concentration of an odorant in the gas phase at high pressure, first order phase equilibrium equations may be used.
It is also assumed that the odorant is saturated. This means that at the constant pressure when odorant is added, the amount of odorant in the vapor phase remains constant. The equation used to find the fraction of the vapor phase taken solely by the odorant is Raoult's Law: xAPA^sat=yAP
Where, xA is the odorant's fraction of the liquid phase, yA is the odorant's fraction of the vapor phase, PA^sat is the vapor pressure of the saturated odorant, and P is the total pressure within the system.
With these values, the concentration of odorant may be found at ambient conditions for the storage conditions of 6,000 psi. To calculate the pressure needed to produce a certain saturated concentration of odorant in the vapor phase: […]

[3] = @ 25° C.; cited from earlier work
[4] = tested on: human nose; assay: Standard human olfactory power / odor threshold; assay type: in vivo; conditions: for Odorant Threshold: minimum detection concentration
Excerpt: Another important property of an odorant is its odor threshold. A suitable odorant should be detectable by the human nose at very low concentrations. […] To ensure simultaneous outflow in case of a leak, both components should be in the same phase and well blended. Some odor threshold values may be found in the Handbook of Hazardous Chemical Properties. In addition, the American Industrial Hygiene Association (AIHA) publishes a book of odor threshold values (Odor Thresholds for Chemicals with Established Occupational Health Standards).
Certain functional groups, such as the mercaptans, have high potency odors. According to published standardized human olfactory thresholds, mercaptans are among the strongest smelling compounds known. The stench of mercaptans is a key reason why these compounds were chosen for natural gas odorization. The following is a list of functional groups that may be used to highlight key factors for olfactory thresholds in humans. Standard olfactory power refers to the minimum concentration at which a particular compound is detectable by the average person. The mathematical definition is given as the negative log of odorant concentration expressed in volumetric fraction: pOl=−log [odorant]. Based on this definition an olfactory power of “0/6/9” corresponds to “odorlessness/1 ppm/1 ppb” threshold levels, respectively.

[5] = tested on: average weight person; conditions: cited from earlier work

CCCO [Odorant 1-propanol, 1-propanol]
Olfactory Power (pOl) [1]: 5.62

CC=O [acetaldehyde]
Olfactory Power (pOl) [1]: 6.73

CC(C)=O [acetone]
Olfactory Power (pOl) [1]: 4.84

CCCC [butane]
Olfactory Power (pOl) [1]: 3.69

CCNCC [diethylamine]
Olfactory Power (pOl) [1]: 6.73

CC[Se]CC [diethylselenide, diethyl selenide]
Olfactory Power (pOl) [1]: 9.13

CCSCC [diethylsulfide]
Olfactory Power (pOl) [1]: 8.41

C[Se]C [dimethyl selenide]
Saturated Odorant Concentration yA ([2]; @ 6000 psi, 25° C.): 773 ppm | Odorant Vapor Pressure PA^SAT [3]: 4.6 psi

CNC [dimethylamine, dimethyl amine]
Saturated Odorant Concentration yA [2]: 4892 ppm | ‘B’ Saturated Odorant Loading [6000 psi H2] [2]: 4892 ppm | Olfactory Power (pOl) [1]: 7.09 | Odorant Threshold ([4]; Table 4): 0.08128 ppm | Odorant Vapor Pressure PA^SAT [3]: 29.4 psi

CSC [dimethylsulfide]
Olfactory Power (pOl) [1]: 8.65

CC [ethane]
Olfactory Power (pOl) [1]: 2.00

CCO [ethanol]
‘B’ Saturated Odorant Loading [6000 psi H2] ([2]; PA^sat/P × 10^6 at 6000 psi): 190 ppm | concentration in the vapor phase ([2]; at 6000 psi): ≤ 190 ppm | Olfactory Power (pOl) [1]: 4.54 | Odorant Threshold ([4]; Table 4): 28.840 ppm

CCS [ethyl mercaptan]
Saturated Odorant Concentration yA ([2]; @ 6000 psi, 25° C.): 1705 ppm | ‘B’ Saturated Odorant Loading [6000 psi H2] ([2]; PA^sat/P × 10^6 at 6000 psi): 1705 ppm | Olfactory Power (p. ol) [1]: 8.97 | Olfactory Power (pOl) [1]: 8.97 | times higher detectability as compared to ethanol ([4]; FIG. 3): 30,000 times | Odorant Threshold ([4]; Table 3): 0.00107 ppm | Odorant Threshold ([4]; Table 4): 0.001072 ppm | Odorant Vapor Pressure PA^SAT [3]: 10.2 psi

CC[SeH] [ethyl selenol]
Odorant Vapor Pressure PA^SAT ([2]; @ 25° C., estimated value based on known vapor pressures of structurally similar compounds): ~5 psi | Saturated Odorant Concentration yA ([2]; @ 6000 psi, 25° C.): ~833 ppm | ‘B’ Saturated Odorant Loading [6000 psi H2] ([2]; PA^sat/P × 10^6 at 6000 psi): 833 ppm | Olfactory Power (pOl) [1]: 10.74 | times higher detectability as compared to ethyl mercaptan ([4]; FIG. 3): 67 times | Odorant Threshold ([4]; Table 4): 0.000018 ppm | detectability ([4]; based on its olfactory power): 1.8E-5 ppm

CCN [ethylamine, ethyl amine]
Olfactory Power (pOl) [1]: 6.49

CCCl [ethylchloride]
‘B’ Saturated Odorant Loading [6000 psi H2] ([2]; PA^sat/P × 10^6 at 6000 psi): 3256 ppm | Olfactory Power (pOl) [1]: 5.39 | Odorant Threshold ([4]; Table 4): 4.074 ppm

CC(C)CS [isobutyl mercaptan]
Olfactory Power (pOl) [1]: 8.95

CO [methanol]
Olfactory Power (pOl) [1]: 3.85

COC(C)=O [methyl acetate]
Olfactory Power (pOl) [1]: 5.21

COC=O [methyl formate]
Olfactory Power (pOl) [1]: 4.03

CS [methyl mercaptan]
Olfactory Power (pOl) [1]: 8.98

CN [methylamine, methyl amine]
‘B’ Saturated Odorant Loading [6000 psi H2] ([2]; PA^sat/P × 10^6 at 6000 psi): 8543 ppm | Olfactory Power (pOl) [1]: 7.73 | Odorant Threshold ([4]; Table 4): 0.01862 ppm

CCSC [methylethylsulfide]
Olfactory Power (pOl) [1]: 8.42

CCC [propane]
Olfactory Power (pOl) [1]: 2.57

CCCN [propylamine, propyl amine]
Saturated Odorant Concentration yA ([2]; @ 6000 psi, 25° C.): 999 ppm | ‘B’ Saturated Odorant Loading [6000 psi H2] ([2]; PA^sat/P × 10^6 at 6000 psi): 999 ppm | Olfactory Power (pOl) [1]: 7.96 | Odorant Threshold ([4]; Table 4): 0.01097 ppm | Odorant Vapor Pressure PA^SAT [3]: 6.0 psi

c1ccncc1 [pyridine]
Saturated Odorant Concentration yA [2]: 67 ppm | maximum concentration in the vapor/gas phase [2]: 67 ppm | ‘B’ Saturated Odorant Loading [6000 psi H2] [2]: 67 ppm | Olfactory Power (p. ol) [1]: 7.07 | Odorant Threshold ([4]; Table 4): 0.08511 ppm | Odorant Vapor Pressure PA^SAT [3]: 0.4 psi

[Se] [selenium]
ingested quantity at which selenosis occurs [5]: 5 mg/day

CC(C)(C)S [t-butyl mercaptan]
Saturated Odorant Concentration yA ([2]; @ 6000 psi, 25° C.): 583 ppm | maximum concentration in the vapor/gas phase ([2]; at 6000 psi): approximately 580 ppm | Olfactory Power (pOl) [1]: 9.48

CN(C)C [trimethyl amine]
Saturated Odorant Concentration yA ([2]; @ 6000 psi, 25° C.): 5172 ppm | Odorant Vapor Pressure PA^SAT [3]: 31.0 psi
